# Laboratory results as given in US12274684B2, “Treatment of vasculopathy with prostacyclin and mesenchymal stem cells” (United Therapeutics Corporation, priority 2013, dated 2025).
# “And” between values parts separate entries of the source, which are not always exact repeats. Equal entries are not always repeated.
# Tested on: human bone marrow MSC
# Assay: Microarray gene expression analysis of MSC (Illumina Human HT12 Expression BeadChip)
# Type: cell-based
# Settings: Tre(+) 250 μg/mL, 24 h
# Method: Human bone marrow MSC were expanded and seeded into six (6) T225 flasks using standard growth medium (Table 1). At 95-99% confluency, cells were thoroughly washed with PBS. Three (3) flasks were replenished with basal media containing 250 μg/mL treprostinil, (+)Tre, and the remaining three (3) flasks were replenished with unsupplemented basal media, (−)Tre. After 24 hours of culture, representative images were captured from (+) Tre and (−) Tre cultures. Conditioned media was collected from each replicate, divided into two samples of appropriate volumes, and analyzed separately for: 1) secreted proteins (Myriad RBM InflammationMAP® 1.0) and 2) exosome RNA content. Cells were lysed directly from culture flasks, processed for total RNA isolation, and analyzed for gene expression by microarray (Illumina Human HT12 Expression BeadChip). Microarray gene expression analysis was also performed on MSC from cultures without (−) or with (+) 250 ug/mL treprostinil. Three (3) biological replicates from each condition were analyzed. Of the 77,612 sequences identified among all replicates, only 24,273 were detected above the arbitrary background of 50 counts. 2,984 RNA sequences were unique to Tre(−) cultures, while 1,781 RNA sequences were unique to Tre(+) cultures (panel A). Genes detected in both conditions were further analyzed for differential expression (panel). […] Genes that are expressed only in Tre(−) cultures (that is to say, completely turned off in the Tre(+) cultures) are shown in Table 5.
smiles,measurement,setting,value
CCCCC[C@H](O)CC[C@@H]1[C@H]2Cc3cccc(OCC(=O)O)c3C[C@H]2C[C@H]1O [treprostinil],"SLC14A1 (NM_015865) expression, Rep 1-3 (Table 4)",,95 counts and 102 counts and 67 counts
same,"SLC16A6 (NM_004694) expression, Rep 1-3",,975 counts and 1342 counts and 784 counts
same,"SREBF1 (NM_004176) expression, Rep 1-3",,1709 counts and 1842 counts and 1577 counts
same,"ST6GALNAC6 (NM_013443) expression, Rep 1-3",,424 counts and 651 counts and 445 counts
same,"TRH (NM_007117) expression, Rep 1-3",,419 counts and 697 counts and 428 counts
same,"VEGFA (NM_001025370) expression, Rep 1-3",,4761 counts and 6614 counts and 4293 counts
same,"VEGFA (NM_001171626) expression, Rep 1-3",,6586 counts and 9874 counts and 6349 counts
same,"GDNF (NM_199231) expression, AVG",Tre(−) AVG 0,751 counts
same,"HAS1 (NM_001523) expression, AVG, second entry",Tre(−) AVG 0,958 counts
same,"ST6GALNAC6 (NM_013443) expression, AVG",Tre(−) AVG 2,506 counts
same,"ANGPTL4 (NM_139314) expression, AVG",Tre(−) AVG 4,1759 counts
same,"ATP6V0D2 (NM_152565) expression, AVG",Tre(−) AVG 10,646 counts
same,"SLC16A6 (NM_004694) expression, AVG",Tre(−) AVG 10,1034 counts
same,"TRH (NM_007117) expression, AVG",Tre(−) AVG 11,515 counts
same,"PDE4B (NM_001037339) expression, AVG",Tre(−) AVG 14,1196 counts
same,"NGFR (NM_002507) expression, AVG",Tre(−) AVG 16,1370 counts
same,"PDE4D (NM_001197222) expression, AVG",Tre(−) AVG 16,1677 counts
same,"SLC4A2 (NM_001199693) expression, AVG",Tre(−) AVG 16,524 counts
same,"HAS1 (NM_001523) expression, AVG, first entry",Tre(−) AVG 23,1728 counts
same,"ATF3 (NM_001030287) expression, AVG",Tre(−) AVG 26,1207 counts
same,"KYNU (NM_003937) expression, AVG",Tre(−) AVG 27,862 counts
same,"PDK4 (NM_002612) expression, AVG",Tre(−) AVG 33,1399 counts
same,"PDE4D (NM_001197221) expression, AVG",Tre(−) AVG 36,1124 counts
same,"STC1 (NM_003155) expression, AVG",Tre(−) AVG 36,1584 counts
same,"ATF3 (NM_001674) expression, AVG",Tre(−) AVG 37,676 counts
same,"BMP6 (NM_001718) expression, AVG",Tre(−) AVG 39,1324 counts
same,"KTN1 (NM_001079522) expression, AVG",Tre(−) AVG 40,579 counts
same,"SEC31A (NM_001077207) expression, AVG",Tre(−) AVG 40,732 counts
same,"PLOD2 (NM_000935) expression, AVG",Tre(−) AVG 42,1258 counts
same,"GDNF (NM_000514) expression, AVG",Tre(−) AVG 43,786 counts
same,"PTGS2 (NM_000963) expression, AVG",Tre(−) AVG 46,10888 counts
same,"PAQR5 (NM_017705) expression, AVG",Tre(−) AVG 48,704 counts
same,"IL11 (NM_000641) expression, AVG",Tre(−) AVG 50,929 counts
same,"SCG2 (NM_003469) expression, AVG",Tre(−) AVG 51,1090 counts
same,"PITPNC1 (NM_181671) expression, AVG",Tre(−) AVG 52,824 counts
same,"IGFBP1 (NM_000596) expression, AVG",Tre(−) AVG 53,6304 counts
same,"SLC6A15 (NM_182767) expression, AVG",Tre(−) AVG 54,1277 counts
same,"HSD11B1 (NM_005525) expression, AVG",Tre(−) AVG 55,849 counts
same,"NR4A2 (NM_006186) expression, AVG",Tre(−) AVG 55,679 counts
same,"PTP4A1 (NM_003463) expression, AVG",Tre(−) AVG 58,685 counts
same,"SIK1 (NM_173354) expression, AVG",Tre(−) AVG 58,1183 counts
same,"IL6 (NM_000600) expression, AVG",Tre(−) AVG 63,6859 counts
same,"SMOX (NM_175840) expression, AVG",Tre(−) AVG 77,955 counts
same,"PALLD (NM_001166110) expression, AVG",Tre(−) AVG 78,1033 counts
same,"DUSP1 (NM_004417) expression, AVG",Tre(−) AVG 85,1092 counts
same,"SAT1 (transcript variant 2, non-coding RNA) expression, AVG",Tre(−) AVG 89,1208 counts
same,"PRKAG2 (NM_024429) expression, AVG",Tre(−) AVG 91,7155 counts
same,"LIPG (NM_006033) expression, AVG",Tre(−) AVG 129,1702 counts
same,"IER3 (NM_003897) expression, AVG",Tre(−) AVG 132,2974 counts
same,"SREBF1 (NM_004176) expression, AVG",Tre(−) AVG 148,1709 counts
same,"IDH1 (NM_005896) expression, AVG",Tre(−) AVG 155,2039 counts
same,"C11orf96 (NM_001145033) expression, AVG",Tre(−) AVG 176,2105 counts
same,"CD55 (NM_001114752) expression, AVG",Tre(−) AVG 202,2663 counts
same,"GPRC5A (NM_003979) expression, AVG",Tre(−) AVG 355,4684 counts
same,"CD55 (NM_000574) expression, AVG",Tre(−) AVG 359,7712 counts
same,"VEGFA (NM_001025370) expression, AVG",Tre(−) AVG 386,5223 counts
same,"GDF15 (NM_004864) expression, AVG",Tre(−) AVG 421,13505 counts
same,"TIAM2 (NM_012454) expression, AVG",Tre(−) AVG 504,20 counts
same,"KIAA0930 (NM_015264) expression, AVG",Tre(−) AVG 511,48 counts
same,"CALD1 (NM_033140) expression, AVG",Tre(−) AVG 523,0 counts
same,"MBNL1 (NM_207297) expression, AVG",Tre(−) AVG 526,46 counts
same,"NAP1L3 (NM_004538) expression, AVG",Tre(−) AVG 538,48 counts
